Calls of active or inactive are those of the source. The calls are words filed in the database; no cut-off is given here.
How the values were obtained:
[1] = target: Proto-oncogene tyrosine-protein kinase Src (Homo sapiens) (UniProt P12931); experiment: Inhibition of […] phosphorylation in human MDA-MB-231 cells at 0.05 to 10 uM by Western blotting analysis; format: cell-based
[2] = target: Histone acetyltransferase p300 (Homo sapiens) (UniProt Q09472); experiment: Inhibition of P300 in human MDA-MB-231 cells at 1 to 20 uM by Western blotting analysis; format: cell-based
[3] = system: PANC-1; experiment: Reduction of total Stat3 level in human PANC1 cells at 0.5 to 20 uM by Western blotting analysis; format: functional, cell-based
[4] = system: MDA-MB-231; experiment: Reduction of total Stat3 level in human MDA-MB-231 cells at 0.05 to 20 uM by Western blotting analysis; format: functional, cell-based
[5] = target: Hypoxia-inducible factor 1-alpha (Homo sapiens) (UniProt Q16665); experiment: Inhibition of HIF-1 alpha in human OVCAR3 cells assessed as inhibition of Bcl2 expression at 1 to 20 uM by Western blotting analysis in normoxia condition; format: cell-based; conditions: OVCAR-3
[6] = target: Endothelial PAS domain-containing protein 1 (Homo sapiens) (UniProt Q99814); experiment: Inhibition of HIF-2 alpha in human OVCAR3 cells at 1 to 20 uM by Western blotting analysis in hypoxia condition; format: cell-based; conditions: OVCAR-3
[7] = target: Signal transducer and activator of transcription 3 (Homo sapiens) (UniProt P40763); experiment: Inhibition of Stat3 in human MDA-MB-231 cells assessed as inhibition of Stat3 phosphorylation at 10 uM after 18 hrs by Western blotting analysis; format: cell-based
[8] = system: MDA-MB-231; experiment: Anticancer activity in human MDA-MB-231 cells assessed as reduction of total Stat3 level at 10 uM after 18 hrs by Western blotting analysis; format: functional, cell-based
[9] = Antitumor activity against human PANC1 cells xenografted in Balb nu/nu mouse assessed as mean tumor weight at 2 mg/kg, ip administered every other day for 10 days measured after 19 days (reference value: 0.5 +/- 0.05 g); format: functional, PANC-1; conditions: route intraperitoneal
[10] = Antitumor activity against human PANC1 cells xenografted in Balb nu/nu mouse assessed as mean tumor volume at 2 mg/kg, ip administered every other day for 10 days measured after 19 days (reference value: 754 mm'3); format: functional, PANC-1; conditions: route intraperitoneal
[11] = system: MDA-MB-231; experiment: Antitumor activity against human MDA-MB-231 cells xenografted in Balb nu/nu mouse assessed as reduction in tumor growth at 2 mg/kg, ip administered every other day for 10 days; format: functional, organism-based; parameters: dose 2 mg/kg
[12] = system: MDA-MB-231; experiment: Induction of apoptosis in human MDA-MB-231 cells assessed as reduction in cell viability at 8 uM after 12 to 48 hrs by MTT assay; format: functional, cell-based
[13] = system: MDA-MB-468; experiment: Induction of apoptosis in human MDA-MB-468 cells assessed as reduction in cell viability at 8 uM after 12 to 48 hrs by MTT assay; format: functional, cell-based
[14] = system: MDA-MB-468; experiment: Inhibition of HIF-1 in human MDA-MB-468 cells assessed as reduction of VEGF mRNA expression at 5 to 10 uM by RT-PCR analysis in hypoxia condition; format: cell-based
[15] = target: Hypoxia-inducible factor 1-alpha (Homo sapiens) (UniProt Q16665); experiment: Inhibition of GST-tagged HIF-1 alpha (531 to 826) (unknown origin) expressed in Escherichia coli BL21(DE3) assessed as inhibition of GST-tagged HIF-1 alpha/p300 interaction at 5 ug after overnight incubation by pull down assay in hypoxia condition
[16] = target: Proto-oncogene tyrosine-protein kinase Src (Homo sapiens) (UniProt P12931); experiment: Inhibition of Src kinase (unknown origin) phosphorylation at 10 uM after 6 hrs by cell-based Western blotting analysis
[17] = target: Proto-oncogene tyrosine-protein kinase Src (Homo sapiens) (UniProt P12931); experiment: Inhibition of Src kinase (unknown origin) assessed as total SRC level at 10 uM after 6 hrs by cell-based Western blotting analysis
[18] = target: Tyrosine-protein kinase JAK2 (Homo sapiens) (UniProt O60674); experiment: Inhibition of JAK2 (unknown origin) assessed as total JAK2 level at 10 uM after 6 hrs by cell-based Western blotting analysis
[19] = target: Tyrosine-protein kinase JAK2 (Homo sapiens) (UniProt O60674); experiment: Inhibition of JAK2 (unknown origin) phosphorylation at 10 uM after 6 hrs by cell-based Western blotting analysis
[20] = target: Aryl hydrocarbon receptor nuclear translocator (Homo sapiens) (UniProt P27540); experiment: Inhibition of HIF-1 beta in human PC3 cells after 18 hrs by Western blotting analysis in hypoxia condition; format: cell-based; conditions: PC-3
[21] = target: Histone acetyltransferase p300 (Homo sapiens) (UniProt Q09472); experiment: Inhibition of P300 in human PC3 cells after 18 hrs by Western blotting analysis in hypoxia condition; format: cell-based; conditions: PC-3
[22] = target: Endothelial PAS domain-containing protein 1 (Homo sapiens) (UniProt Q99814); experiment: Inhibition of HIF-2 alpha in human PC3 cells after 18 hrs by Western blotting analysis in hypoxia condition; format: cell-based; conditions: PC-3
[23] = system: PANC-1; experiment: Inhibition of ERK in human PANC1 cells at 1 to 20 uM by Western blotting analysis; format: cell-based
[24] = target: T1, Signal transducer and activator of transcription 5A (Homo sapiens) (UniProt P42229); experiment: Inhibition of Stat5 phosphorylation in human PANC1 cells at 0.5 to 20 uM by Western blotting analysis; format: cell-based; conditions: PANC-1
T1 sequence (whole entry): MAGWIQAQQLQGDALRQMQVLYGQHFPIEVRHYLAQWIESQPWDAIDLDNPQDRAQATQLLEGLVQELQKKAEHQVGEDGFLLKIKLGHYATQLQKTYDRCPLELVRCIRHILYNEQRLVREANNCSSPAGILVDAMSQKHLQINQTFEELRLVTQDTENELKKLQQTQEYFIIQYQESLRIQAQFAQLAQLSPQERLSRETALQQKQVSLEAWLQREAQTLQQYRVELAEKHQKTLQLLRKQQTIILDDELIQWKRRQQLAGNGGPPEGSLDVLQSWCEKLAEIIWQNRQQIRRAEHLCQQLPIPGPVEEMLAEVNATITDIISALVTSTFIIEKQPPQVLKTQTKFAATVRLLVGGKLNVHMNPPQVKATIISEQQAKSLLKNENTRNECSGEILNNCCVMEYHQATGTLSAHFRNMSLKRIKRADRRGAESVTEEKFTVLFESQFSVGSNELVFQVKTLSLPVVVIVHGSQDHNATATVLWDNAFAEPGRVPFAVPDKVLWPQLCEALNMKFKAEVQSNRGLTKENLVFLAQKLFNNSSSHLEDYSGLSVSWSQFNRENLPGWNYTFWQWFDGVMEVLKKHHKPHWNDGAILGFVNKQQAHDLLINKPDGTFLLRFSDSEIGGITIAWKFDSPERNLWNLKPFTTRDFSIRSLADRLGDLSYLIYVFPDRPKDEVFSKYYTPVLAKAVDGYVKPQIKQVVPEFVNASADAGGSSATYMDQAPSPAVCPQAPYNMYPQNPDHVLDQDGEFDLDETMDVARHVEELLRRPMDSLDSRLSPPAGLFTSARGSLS

[25] = target: Signal transducer and activator of transcription 3 (Homo sapiens) (UniProt P40763); conditions: PANC-1, 1 to 20 uM
Description: Inhibition of Stat3 phosphorylation in human PANC1 cells assessed as inhibition of Bcl2 expression at 1 to 20 uM by Western blotting analysis in normoxia condition

[26] = target: Signal transducer and activator of transcription 3 (Homo sapiens) (UniProt P40763); conditions: MDA-MB-468, 1 to 20 uM
Description: Inhibition of Stat3 phosphorylation in human MDA-MB-468 cells assessed as inhibition of Bcl2 expression at 1 to 20 uM by Western blotting analysis in hypoxia condition

[27] = target: Signal transducer and activator of transcription 3 (Homo sapiens) (UniProt P40763); conditions: 10 uM
Description: Inhibition of STAT3 (unknown origin) phosphorylation at 10 uM after 30 mins by cell-based Western blotting analysis

Signal transducer and activator of transcription 3 (Homo sapiens), sequence (P40763 whole entry): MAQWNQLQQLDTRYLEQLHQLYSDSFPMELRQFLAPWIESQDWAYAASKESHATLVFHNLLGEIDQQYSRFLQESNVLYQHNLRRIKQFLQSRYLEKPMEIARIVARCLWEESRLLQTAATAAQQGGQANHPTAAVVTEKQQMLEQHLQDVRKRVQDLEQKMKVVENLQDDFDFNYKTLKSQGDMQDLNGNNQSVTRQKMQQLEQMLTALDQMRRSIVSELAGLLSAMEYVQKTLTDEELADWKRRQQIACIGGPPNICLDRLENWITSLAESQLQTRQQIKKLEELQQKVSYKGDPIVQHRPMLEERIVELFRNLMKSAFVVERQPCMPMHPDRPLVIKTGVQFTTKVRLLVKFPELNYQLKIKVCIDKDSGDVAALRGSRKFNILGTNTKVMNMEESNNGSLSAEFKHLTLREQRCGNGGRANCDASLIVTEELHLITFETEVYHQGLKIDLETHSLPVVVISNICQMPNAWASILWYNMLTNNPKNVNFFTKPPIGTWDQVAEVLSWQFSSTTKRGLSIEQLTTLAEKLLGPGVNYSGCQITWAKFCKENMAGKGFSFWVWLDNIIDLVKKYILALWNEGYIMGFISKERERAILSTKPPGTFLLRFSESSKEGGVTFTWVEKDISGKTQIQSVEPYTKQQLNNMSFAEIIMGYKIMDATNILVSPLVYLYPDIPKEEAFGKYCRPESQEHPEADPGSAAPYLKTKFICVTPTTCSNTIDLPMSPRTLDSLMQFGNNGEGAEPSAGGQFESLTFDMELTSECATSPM
Proto-oncogene tyrosine-protein kinase Src (Homo sapiens), sequence (P12931 2-536 limits assumed): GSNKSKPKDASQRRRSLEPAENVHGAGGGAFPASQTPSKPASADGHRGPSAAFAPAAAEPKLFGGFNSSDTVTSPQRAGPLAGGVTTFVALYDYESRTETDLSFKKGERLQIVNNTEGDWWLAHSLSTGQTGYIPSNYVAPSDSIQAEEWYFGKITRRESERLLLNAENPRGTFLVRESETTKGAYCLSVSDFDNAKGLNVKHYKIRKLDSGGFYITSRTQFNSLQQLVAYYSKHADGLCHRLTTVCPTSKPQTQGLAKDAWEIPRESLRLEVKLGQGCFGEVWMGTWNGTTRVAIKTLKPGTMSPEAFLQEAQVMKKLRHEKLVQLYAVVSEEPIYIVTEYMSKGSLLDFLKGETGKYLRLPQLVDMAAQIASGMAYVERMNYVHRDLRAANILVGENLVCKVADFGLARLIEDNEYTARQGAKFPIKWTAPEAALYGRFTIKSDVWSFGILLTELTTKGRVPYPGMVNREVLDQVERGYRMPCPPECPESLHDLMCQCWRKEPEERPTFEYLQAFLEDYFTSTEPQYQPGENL
Endothelial PAS domain-containing protein 1 (Homo sapiens), sequence (Q99814 whole entry, the tested form may be a part): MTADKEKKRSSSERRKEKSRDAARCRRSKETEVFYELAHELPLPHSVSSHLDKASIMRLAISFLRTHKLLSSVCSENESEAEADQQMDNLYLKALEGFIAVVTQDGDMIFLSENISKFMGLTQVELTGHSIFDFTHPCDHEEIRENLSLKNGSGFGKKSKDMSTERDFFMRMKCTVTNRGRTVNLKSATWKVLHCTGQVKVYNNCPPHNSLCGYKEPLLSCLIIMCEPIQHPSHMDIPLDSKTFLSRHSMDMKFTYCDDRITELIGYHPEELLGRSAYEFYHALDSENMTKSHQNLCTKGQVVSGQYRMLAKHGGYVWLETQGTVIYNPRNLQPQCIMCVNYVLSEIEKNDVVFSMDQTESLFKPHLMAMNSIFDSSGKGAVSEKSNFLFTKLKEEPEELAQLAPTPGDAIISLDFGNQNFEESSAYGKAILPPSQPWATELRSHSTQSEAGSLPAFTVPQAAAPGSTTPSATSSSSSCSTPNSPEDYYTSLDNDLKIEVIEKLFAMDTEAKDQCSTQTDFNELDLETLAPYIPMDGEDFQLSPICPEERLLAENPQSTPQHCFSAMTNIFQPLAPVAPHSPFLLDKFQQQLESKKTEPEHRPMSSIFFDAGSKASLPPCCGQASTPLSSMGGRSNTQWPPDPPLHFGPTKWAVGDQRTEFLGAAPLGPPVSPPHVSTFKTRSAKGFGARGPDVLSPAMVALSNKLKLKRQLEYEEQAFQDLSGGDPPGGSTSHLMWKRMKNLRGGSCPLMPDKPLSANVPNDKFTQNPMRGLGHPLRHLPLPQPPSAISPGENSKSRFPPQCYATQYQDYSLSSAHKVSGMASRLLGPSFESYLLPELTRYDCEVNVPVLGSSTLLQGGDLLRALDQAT
Tyrosine-protein kinase JAK2 (Homo sapiens), sequence (O60674 whole entry): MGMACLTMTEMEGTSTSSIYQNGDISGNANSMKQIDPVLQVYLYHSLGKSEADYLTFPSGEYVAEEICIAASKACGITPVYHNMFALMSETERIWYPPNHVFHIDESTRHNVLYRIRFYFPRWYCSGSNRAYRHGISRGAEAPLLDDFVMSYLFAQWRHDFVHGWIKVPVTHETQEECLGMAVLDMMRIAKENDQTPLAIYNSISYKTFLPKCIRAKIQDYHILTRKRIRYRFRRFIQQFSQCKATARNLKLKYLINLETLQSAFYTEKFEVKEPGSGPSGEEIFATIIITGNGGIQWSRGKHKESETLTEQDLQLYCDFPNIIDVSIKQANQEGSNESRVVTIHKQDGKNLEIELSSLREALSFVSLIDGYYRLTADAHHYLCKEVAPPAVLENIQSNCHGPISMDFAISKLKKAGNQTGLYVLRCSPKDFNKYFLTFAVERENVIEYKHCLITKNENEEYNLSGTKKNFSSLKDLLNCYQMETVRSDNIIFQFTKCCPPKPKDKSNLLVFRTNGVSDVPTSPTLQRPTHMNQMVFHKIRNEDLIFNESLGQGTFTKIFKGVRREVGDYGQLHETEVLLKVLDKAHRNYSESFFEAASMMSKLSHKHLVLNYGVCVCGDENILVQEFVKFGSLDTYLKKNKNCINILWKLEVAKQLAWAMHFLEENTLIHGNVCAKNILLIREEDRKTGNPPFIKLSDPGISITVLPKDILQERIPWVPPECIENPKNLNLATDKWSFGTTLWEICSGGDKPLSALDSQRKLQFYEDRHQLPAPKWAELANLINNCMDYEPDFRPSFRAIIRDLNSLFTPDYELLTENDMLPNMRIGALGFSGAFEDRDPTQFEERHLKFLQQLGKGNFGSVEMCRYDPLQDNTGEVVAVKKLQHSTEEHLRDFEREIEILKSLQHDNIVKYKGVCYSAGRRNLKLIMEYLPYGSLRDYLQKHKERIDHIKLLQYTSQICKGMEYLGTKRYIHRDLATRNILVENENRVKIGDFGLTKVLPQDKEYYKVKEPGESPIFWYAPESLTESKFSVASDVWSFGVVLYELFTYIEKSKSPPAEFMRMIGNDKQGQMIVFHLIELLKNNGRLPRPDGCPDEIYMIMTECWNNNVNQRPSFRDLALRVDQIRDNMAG
Hypoxia-inducible factor 1-alpha (Homo sapiens), sequence (Q16665 whole entry, looked up, the tested form may be a part): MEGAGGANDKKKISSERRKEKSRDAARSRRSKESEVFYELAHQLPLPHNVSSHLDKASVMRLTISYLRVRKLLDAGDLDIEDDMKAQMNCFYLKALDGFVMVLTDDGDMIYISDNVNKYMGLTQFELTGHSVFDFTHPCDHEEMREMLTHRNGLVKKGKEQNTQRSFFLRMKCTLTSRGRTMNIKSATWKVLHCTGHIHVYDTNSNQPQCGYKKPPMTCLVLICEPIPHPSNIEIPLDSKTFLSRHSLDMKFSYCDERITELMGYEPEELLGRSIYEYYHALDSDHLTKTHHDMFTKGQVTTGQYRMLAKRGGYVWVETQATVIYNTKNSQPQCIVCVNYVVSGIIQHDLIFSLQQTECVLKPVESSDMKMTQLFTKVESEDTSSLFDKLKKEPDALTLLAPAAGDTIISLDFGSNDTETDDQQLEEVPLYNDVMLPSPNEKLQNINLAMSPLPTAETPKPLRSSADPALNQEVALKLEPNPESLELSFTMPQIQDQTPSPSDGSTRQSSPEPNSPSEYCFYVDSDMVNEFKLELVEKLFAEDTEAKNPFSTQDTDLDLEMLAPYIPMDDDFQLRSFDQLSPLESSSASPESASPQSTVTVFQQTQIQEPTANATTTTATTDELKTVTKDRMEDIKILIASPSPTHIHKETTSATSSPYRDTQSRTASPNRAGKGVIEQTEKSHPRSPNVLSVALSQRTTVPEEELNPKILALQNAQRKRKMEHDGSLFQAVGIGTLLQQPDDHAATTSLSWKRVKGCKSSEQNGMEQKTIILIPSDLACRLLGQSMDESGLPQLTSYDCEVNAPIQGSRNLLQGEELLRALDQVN
Aryl hydrocarbon receptor nuclear translocator (Homo sapiens), sequence (P27540 whole entry): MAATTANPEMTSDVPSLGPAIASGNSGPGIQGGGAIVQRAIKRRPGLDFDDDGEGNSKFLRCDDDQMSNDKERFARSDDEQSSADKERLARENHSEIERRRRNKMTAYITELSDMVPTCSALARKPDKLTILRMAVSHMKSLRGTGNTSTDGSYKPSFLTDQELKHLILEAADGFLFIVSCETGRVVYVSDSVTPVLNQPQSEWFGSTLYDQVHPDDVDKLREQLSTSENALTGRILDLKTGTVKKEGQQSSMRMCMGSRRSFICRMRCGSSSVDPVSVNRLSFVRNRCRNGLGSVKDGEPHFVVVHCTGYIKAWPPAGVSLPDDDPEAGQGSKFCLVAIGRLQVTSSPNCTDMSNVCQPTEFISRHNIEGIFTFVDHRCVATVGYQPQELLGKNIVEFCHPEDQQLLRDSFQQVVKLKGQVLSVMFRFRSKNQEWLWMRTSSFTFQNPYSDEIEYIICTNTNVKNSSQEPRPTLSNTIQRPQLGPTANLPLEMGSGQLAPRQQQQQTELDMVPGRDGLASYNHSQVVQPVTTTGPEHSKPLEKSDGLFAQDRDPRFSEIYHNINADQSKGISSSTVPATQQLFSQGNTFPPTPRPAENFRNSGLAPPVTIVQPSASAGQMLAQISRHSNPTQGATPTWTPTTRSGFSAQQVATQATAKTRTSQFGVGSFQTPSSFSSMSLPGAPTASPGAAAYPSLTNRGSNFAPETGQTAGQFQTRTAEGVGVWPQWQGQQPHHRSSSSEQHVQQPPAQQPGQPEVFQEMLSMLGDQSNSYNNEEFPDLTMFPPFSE

In the case of `CN(C)CCCN1C(=O)c2ccc3c4ccc5c6c(ccc(c7ccc(c2c37)C1=O)c64)C(=O)N(CCCN(C)C)C5=O`, the inhibition [1] was “inactive”, the inhibition [2] was “inactive” and the Activity [3] was “Active”. For the same molecule, the Activity [4] was “Active”, the inhibition [5] was “Active” and the inhibition [6] was “Active”. For the same molecule, the inhibition [7] was “Active”, the Activity [8] was “inactive” and the Activity [9] was 0.06 g. For the same molecule, the Activity [10] was 75 mm3, the Activity [11] was “Active” and the Activity [12] was “Active”. The Activity [13] was “Active”, the inhibition [14] was “Active” and the inhibition [15] was “Active”. For the same molecule, the inhibition [16] was “inactive”, the inhibition [17] was “inactive” and the inhibition [18] was “inactive”. The inhibition [19] was “inactive”, the inhibition [20] was “inactive” and the inhibition [21] was “inactive”. The inhibition [22] was “Active”, the inhibition [23] was “inactive” and the inhibition [24] was “inactive”. The inhibition [25] was “Active”, the inhibition [26] was “Active” and the inhibition [27] was “Active”.

Source: ChEMBL document CHEMBL3124876, “A perylene derivative regulates HIF-1α and Stat3 signaling pathways” (Bioorg Med Chem, 2014)
